Values belong to the molecule of their own block, whether it stands above or below them.
What was measured:
COX-2 [1] = target: T1, COX-2 (Homo sapiens, UniProt P35354); test: COX-2 enzyme inhibition (Table 1, relative potency of ocular NSAIDs); type: biochemical; details: ratio of IC50 values
T1 sequence (P35354 18-604): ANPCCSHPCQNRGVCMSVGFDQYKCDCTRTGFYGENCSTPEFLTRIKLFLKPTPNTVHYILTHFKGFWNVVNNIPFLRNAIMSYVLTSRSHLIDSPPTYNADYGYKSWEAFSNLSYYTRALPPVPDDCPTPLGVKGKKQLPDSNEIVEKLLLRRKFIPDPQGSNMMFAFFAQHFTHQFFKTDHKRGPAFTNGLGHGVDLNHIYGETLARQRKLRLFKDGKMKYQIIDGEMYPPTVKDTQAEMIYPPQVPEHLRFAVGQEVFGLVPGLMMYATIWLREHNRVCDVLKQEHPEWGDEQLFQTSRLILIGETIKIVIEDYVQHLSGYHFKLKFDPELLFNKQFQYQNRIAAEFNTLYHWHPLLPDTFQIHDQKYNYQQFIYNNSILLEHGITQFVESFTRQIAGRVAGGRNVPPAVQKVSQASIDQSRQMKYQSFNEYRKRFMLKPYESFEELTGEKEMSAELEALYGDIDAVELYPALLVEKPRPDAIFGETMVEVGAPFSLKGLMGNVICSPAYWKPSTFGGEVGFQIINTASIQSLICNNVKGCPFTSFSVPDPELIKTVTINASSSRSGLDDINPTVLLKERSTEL
From the text: NSAIDs vary in their relative potency against COX-1 and COX-2. […] Several in vitro assays are used to determine IC50 values, making the values dependent upon the animal model (tissue and stimulus) used in the experiment and variable between laboratories. Thus, it is important that the assay type is defined when making comparisons between IC50 measurements.

COX-1 = COX-1 (Homo sapiens, UniProt P23219); details: cited from earlier work
COX-1, sequence (P23219 24-599): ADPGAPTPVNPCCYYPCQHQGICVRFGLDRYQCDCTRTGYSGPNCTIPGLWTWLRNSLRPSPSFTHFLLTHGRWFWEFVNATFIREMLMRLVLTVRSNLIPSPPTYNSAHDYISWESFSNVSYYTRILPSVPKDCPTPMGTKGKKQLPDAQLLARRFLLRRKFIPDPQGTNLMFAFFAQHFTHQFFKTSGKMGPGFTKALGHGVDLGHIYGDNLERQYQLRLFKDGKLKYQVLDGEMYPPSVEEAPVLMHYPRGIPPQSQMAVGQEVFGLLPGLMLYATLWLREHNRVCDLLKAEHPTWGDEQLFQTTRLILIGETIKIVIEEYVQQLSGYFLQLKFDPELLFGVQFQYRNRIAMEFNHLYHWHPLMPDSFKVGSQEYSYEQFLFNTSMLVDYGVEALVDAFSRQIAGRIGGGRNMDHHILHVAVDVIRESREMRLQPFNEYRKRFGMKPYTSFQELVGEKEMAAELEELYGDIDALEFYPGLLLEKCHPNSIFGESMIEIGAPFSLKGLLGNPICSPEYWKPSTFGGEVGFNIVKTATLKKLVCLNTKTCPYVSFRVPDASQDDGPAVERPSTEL

COX-2 [2] = target: T1, COX-2; details: cited from earlier work
[3] = system: choroidal neovascularization (CNV); test: Laser photocoagulation-induced choroidal neovascularization in mice; type: in vivo, C57BL/6J mice; details: 2 weeks of treatment after laser burn, versus saline, BF 0.1% topical 4 μL four times per day, sVEGFR-1/Fc 250 ng
Experimental: Methods: Six-week female C57BL/6J mice received laser burns with 514-argon laser at the posterior retina; 19 mice with successful burns were randomly assigned to 1 of 3 treatment groups: BF 0.1%, saline with or without 250 ng sVEGFR-1/Fc immediately after laser burn. Mice were treated with 4 μL of BF 0.1% or saline four times per day for 2 weeks. Then deeply anaesthetized mice were perfused with 50 mg/mL flourescein-labeled dextran, eyes were enucleated and fixed in buffered formalin. Flat mounts of the RPE-choroid-sclera were observed by fluorescence microscope. Total area of hyperfluorescent neovascualature was measured using image-analysis software

[4] = target: T2, COX-2 purified from rabbit alveolar macrophage (Oryctolagus cuniculus, UniProt O02768); details: cited from earlier work
T2 construct: from tissue; host or cells: rabbit alveolar macrophage
T2 sequence (O02768 18-604): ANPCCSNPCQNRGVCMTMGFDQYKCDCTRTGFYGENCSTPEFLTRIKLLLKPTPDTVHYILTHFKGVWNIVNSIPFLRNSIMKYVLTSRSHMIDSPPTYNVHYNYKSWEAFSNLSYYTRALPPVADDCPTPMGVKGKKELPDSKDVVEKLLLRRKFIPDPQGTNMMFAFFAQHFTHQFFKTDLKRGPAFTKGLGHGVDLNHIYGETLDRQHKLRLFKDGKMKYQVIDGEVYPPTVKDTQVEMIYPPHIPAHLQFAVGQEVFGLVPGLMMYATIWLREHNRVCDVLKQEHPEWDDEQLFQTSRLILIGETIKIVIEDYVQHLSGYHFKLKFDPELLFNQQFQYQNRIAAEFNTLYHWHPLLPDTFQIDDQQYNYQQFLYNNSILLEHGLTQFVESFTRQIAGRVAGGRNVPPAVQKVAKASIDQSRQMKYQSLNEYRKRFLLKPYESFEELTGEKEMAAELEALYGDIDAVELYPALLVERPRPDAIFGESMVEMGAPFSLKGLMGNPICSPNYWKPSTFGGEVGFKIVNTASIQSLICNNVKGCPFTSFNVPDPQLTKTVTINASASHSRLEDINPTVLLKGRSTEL

human recombinants COX-2 = target: T3, human recombinants COX-2 (Homo sapiens, UniProt P35354); details: relative to ketorolac; cited from earlier work
T3 sequence (P35354 18-604): T1 sequence (P35354 18-604)

prostaglandin synthesis = details: in vitro, relative to indomethacin; cited from earlier work
[5] = eye drops; cited from earlier work
[6] = cited from earlier work

Molecule: NC(CO)(CO)CO.O=C(c1ccccc1)c1ccc2n1CCC2C(=O)O (racemic) [ketorolac, (±)-5-benzoyl-2,3-dihydro-1H pyrrolizine-1-carboxylic acid, 2-amino-2-(hydroxymethyl)-1,3-propanediol salt (1:1)]
Ratio COX-1/COX-2 (COX-2 [1]): 0.167 | IC50 (COX-1): 20 nM | IC50 (COX-2 [2]): 120 nM

Molecule: Nc1c(CC(=O)[O-])cccc1C(=O)c1ccc(Br)cc1.Nc1c(CC(=O)[O-])cccc1C(=O)c1ccc(Br)cc1.O.O.O.[Na+].[Na+] [bromfenac, sodium 2-amino-3-(4-bromobenzoyl)phenylacetate sesquihydrate]
reduction of area of choroidal neovascularization (CNV lesions) [3]: 71% | IC50 (COX-2 [2]): 23 nM | inhibitory effect on COX-2, times greater than amfenac ([4]; relative to amfenac): 6.5 times | inhibitory effect on COX-2, times greater than diclofenac ([4]; relative to diclofenac): 3.7 times | inhibitory effect on COX-2, times more potent than ketorolac (human recombinants COX-2): 18 times | inhibition of prostaglandin synthesis, times greater than indomethacin (prostaglandin synthesis): approximately 12 times | stability in aqueous solution [5]: stable for a long period of time

Ratio COX-1/COX-2 (COX-2 [1]): 1.67
Molecule: NC(=O)Cc1cccc(C(=O)c2ccccc2)c1N [nepafenac, 2-amino-3-benzoyl-benzeneacetamide]
IC50 (COX-1): 250 nM | IC50 (COX-2 [2]): 150 nM

Molecule: Lucentis: recombinant humanized IgG1 kappa isotype monoclonal antibody fragment designed for intravitreal use
rate of arterial thromboembolic events ([6]; Lucentis clinical trials): < 4% | serious adverse reactions related to the intravitreal injection procedure ([6]; endophthalmitis, rhegmatogenous retinal detachments, iatrogenic traumatic cataracts): < 0.1 % of injections | time after intravitreal injection at which increases in intraocular pressure were noted ([6]; human, in vivo): ≤ 60 min | other serious ocular adverse reactions ([6]; intraocular inflammation and increased intraocular pressure): < 2 % of patients
